From patent publication US20110039763A1, “TARGETED ANTIMICROBIAL MOIETIES” (C3 JIAN, INC., priority 2009, published 2011)
“Also recorded” adds a separate entry of the source.

Assays:
microorganisms [1] = assay: Targeting peptide binding to target microorganisms (Tables 3, 10, 12); details: peptide binding in aqueous buffers that varied with peptide solubility; preferably 1x PBS
Description: In certain embodiments, the targeting moiety comprises one or more targeting peptides that bind particular bacteria, fungi, and/or yeasts, and/or algae, and/or viruses and/or that bind particular groups of bacteria, and/or groups of fungi, and/or groups of yeasts, and/or groups of algae.
In certain embodiments the targeting peptides include peptides comprising or consisting of one or more of the amino acid sequences shown in Table 3 (SEQ ID NOs:13-1566). In various embodiments the peptides include peptides comprising or consisting of the retro, inverso, retro-inverso, and/or beta form of one or more of the amino acid sequences shown in Table 3. Also contemplated are circular permutations of these sequences as well as peptides comprising or consisting of the retro, inverso, retro-inverso, and/or beta form of such circular permutations.
In certain embodiments the targeting peptide can comprise one or more domains capable of binding, specifically binding, or preferentially binding to a microorganism, e.g., a target microbial organism (see, e.g., Table 3). In certain embodiment, the targeting peptide be identified via screening peptide libraries. For example, a phage display peptide library can be screened against a target microbial organism or a desired antigen or epitope thereof. Any peptide identified through such screening can be used as a targeting peptide for the target microbial organism.

microorganisms [2] = assay: Morphology, biofilm and growth disrupting peptides (Table 5); assay type: cell-based; design: key: A: Peptide aggregates; B: Less hyphal formation; Clumps; Diffuse clumps and small polyps; F: Diffuse growth; H: Thin; I: Growth inhibition; Microcolony formation; Rippled; Small polyps; Thick; W: Halo formation on top, microlonies on bottom
Description: In certain embodiments peptides that induce alterations in phenotype or other biological activities can also be used as antimicrobial effector moieties.

1T-3 (VLGIAGGLDAYGELVGGN; Peptide with targeting and/or antimicrobial activity)
Target(s) (microorganism bound by the targeting peptide) (microorganisms [1]): S. mutans; also recorded: S. gordonii

DLLKSLLGQDGAKNDEIIEFIKIIMEK [PF-591]
Organism, effect (microorganisms [2]; C. jejuni): C. jejuni (C)
Organism, effect (microorganisms [2]; E. faecalis): E. faecalis (A)
Organism, effect (microorganisms [2]; S. pneumoniae): S. pneumoniae (R)

KTPNDKIHKTIIIKHIIL [PF-533]
Organism, effect (microorganisms [2]; E. coli): E. coli (R)
Organism, effect (microorganisms [2]; E. faecalis): E. faecalis (C)
Organism, effect (microorganisms [2]; MRSA): MRSA (H)
Organism, effect (microorganisms [2]; S. epidermidis): S. epidermidis (H)
Organism, effect (microorganisms [2]; S. pneumoniae): S. pneumoniae (C)

PF-019 (NDTNK; Peptide with targeting and/or antimicrobial activity)
Organism, effect: MRSA (microorganisms [2]; MRSA): MRSA (M)

PF-032 (RIVVPAHQSNMASTPNLSITP; Peptide with targeting and/or antimicrobial activity)
Organism, effect: C. jeikeium (microorganisms [2]): C. jeikeium (C)
Organism, effect: S. epidermidis (microorganisms [2]; S. epidermidis): S. epidermidis (S)

PF-059 (TITLKAGIERALHEEVPGVIEVEQVF; Peptide with targeting and/or antimicrobial activity)
Organism, effect: C. jejuni (microorganisms [2]; C. jejuni): C. jejuni (C)

PF-199 (FPAFSFGAIAGSVSVAR; Peptide with targeting and/or antimicrobial activity)
Organism, effect: C. jeikeium (microorganisms [2]): C. jeikeium (R)
Organism, effect: M. luteus (microorganisms [2]; M. luteus): M. luteus (A)
Organism, effect: S. epidermidis (microorganisms [2]; S. epidermidis): S. epidermidis (C)

PF-220 (VDPADDGTRHIRPEDGDPIEIDE; Peptide with targeting and/or antimicrobial activity)
Organism, effect: S. pneumoniae (microorganisms [2]; S. pneumoniae): S. pneumoniae (H)

PF-250 (SEDIFGRLANEKANGLEELRKIRLKQ; Peptide with targeting and/or antimicrobial activity)
Organism, effect: M. luteus (microorganisms [2]; M. luteus): M. luteus (T)

PF-264 (MQSLSNRQSLIASYILMGIFLSFGYPPASLSKFFCRLSHL; Peptide with targeting and/or antimicrobial activity)
Organism, effect: M. luteus (microorganisms [2]; M. luteus): M. luteus (H)

PF-274 (SIQEAEKIIKNDPFYIHDVADYDFMWFEPSKSLEEIKEFV; Peptide with targeting and/or antimicrobial activity)
Organism, effect: M. luteus (microorganisms [2]; M. luteus): M. luteus (M)

PF-290 (MVHDMTNGTLIIVKH; Peptide with targeting and/or antimicrobial activity)
Organism, effect: S. epidermidis (microorganisms [2]; S. epidermidis): S. epidermidis (C)

PF-293 (YDPLK; Peptide with targeting and/or antimicrobial activity)
Organism, effect: S. epidermidis (microorganisms [2]; S. epidermidis): S. epidermidis (C)

PF-296 (GAFGMPSIKTNTICGEKGKFISACDAWLSNLK; Peptide with targeting and/or antimicrobial activity)
Organism, effect: B. subtilis (microorganisms [2]; B. subtilis): B. subtilis (C)
Organism, effect: S. epidermidis (microorganisms [2]; S. epidermidis): S. epidermidis (C)

PF-303 (EYPWSWISEPWPWDKSFYK; Peptide with targeting and/or antimicrobial activity)
Organism, effect: B. subtilis (microorganisms [2]; B. subtilis): B. subtilis (C)

PF-310 (GVALIGTILVPLLSGLFG; Peptide with targeting and/or antimicrobial activity)
Organism, effect: S. epidermidis (microorganisms [2]; S. epidermidis): S. epidermidis (C)

PF-318 (MGRHLWNPSYFVATVSENTEEQIRKYINNQKKQVK; Peptide with targeting and/or antimicrobial activity)
Organism, effect: B. subtilis (microorganisms [2]; B. subtilis): B. subtilis (C)
Organism, effect: S. epidermidis (microorganisms [2]; S. epidermidis): S. epidermidis (C)

PF-335 (AAYPIEDWSDWYEDFFIMLSNI; Peptide with targeting and/or antimicrobial activity)
Organism, effect: B. subtilis (microorganisms [2]; B. subtilis): B. subtilis (C)
Organism, effect: S. epidermidis (microorganisms [2]; S. epidermidis): S. epidermidis (C)

PF-339 (KKIDILINKYMYLSK; Peptide with targeting and/or antimicrobial activity)
Organism, effect: B. subtilis (microorganisms [2]; B. subtilis): B. subtilis (C)
Organism, effect: S. epidermidis (microorganisms [2]; S. epidermidis): S. epidermidis (C)

PF-342 (AFSGVYKTLIVYTRRK; Peptide with targeting and/or antimicrobial activity)
Organism, effect: B. subtilis (microorganisms [2]; B. subtilis): B. subtilis (C)
Organism, effect: S. epidermidis (microorganisms [2]; S. epidermidis): S. epidermidis (C)

PF-415 (MIDVTIGQKSKTGAFNASYSICFSGENFSF; Peptide with targeting and/or antimicrobial activity)
Organism, effect: S. pneumoniae (microorganisms [2]; S. pneumoniae): S. pneumoniae (D)

PF-419 (VVTGKVGSLPQIK; Peptide with targeting and/or antimicrobial activity)
Organism, effect: S. pneumoniae (microorganisms [2]; S. pneumoniae): S. pneumoniae (H)

PF-449 (MPTTKSKQKGWTNTKKASNTQ; Peptide with targeting and/or antimicrobial activity)
Organism, effect (microorganisms [2]; S. pneumoniae): S. pneumoniae (H)

PF-455 (MARNDDDIKKIKGTLGQSPEVYGERKLPYT; Peptide with targeting and/or antimicrobial activity)
Organism, effect (microorganisms [2]; S. pneumoniae): S. pneumoniae (A)

PF-468 (EDNKDKKDKKDK; Peptide with targeting and/or antimicrobial activity)
Organism, effect (microorganisms [2]; S. pneumoniae): S. pneumoniae (H)

PF-485 (KNSMSRSIALID; Peptide with targeting and/or antimicrobial activity)
Organism, effect (microorganisms [2]; S. pneumoniae): S. pneumoniae (A)

PF-532 (KFIYKYKLSFIIYKILIQTLTMELNK; Peptide with targeting and/or antimicrobial activity)
Organism, effect (microorganisms [2]; E. coli): E. coli (C)
Organism, effect (microorganisms [2]; E. faecalis): E. faecalis (C)
Organism, effect (microorganisms [2]; MRSA): MRSA (C)
Organism, effect (microorganisms [2]; S. pneumoniae): S. pneumoniae (C)

PF-534 (KYFHLFYHNIIHYSKQHLSLKVDFKN; Peptide with targeting and/or antimicrobial activity)
Organism, effect (microorganisms [2]; E. coli): E. coli (R)
Organism, effect (microorganisms [2]; E. faecalis): E. faecalis (C)
Organism, effect (microorganisms [2]; MRSA): MRSA (C)
Organism, effect (microorganisms [2]; S. epidermidis): S. epidermidis (C)
Organism, effect (microorganisms [2]; S. pneumoniae): S. pneumoniae (R)

PF-535 (NIKTRKRALKIIKQHQRSK; Peptide with targeting and/or antimicrobial activity)
Organism, effect (microorganisms [2]; P. aeruginosa): P. aeruginosa (H)
Organism, effect (microorganisms [2]; S. pneumoniae): S. pneumoniae (H)

PF-536 (MEPIPHIMIIANQIGIIIEKA; Peptide with targeting and/or antimicrobial activity)
Organism, effect (microorganisms [2]; E. coli): E. coli (R)
Organism, effect (microorganisms [2]; E. faecalis): E. faecalis (C)
Organism, effect (microorganisms [2]; MRSA): MRSA (C)
Organism, effect (microorganisms [2]; P. aeruginosa): P. aeruginosa (H)
Organism, effect (microorganisms [2]; S. epidermidis): S. epidermidis (C)
Organism, effect (microorganisms [2]; S. pneumoniae): S. pneumoniae (M)

PF-541 (RRNLNSPNIKTRKRALKIIKQHQRSK; Peptide with targeting and/or antimicrobial activity)
Organism, effect (microorganisms [2]; E. coli): E. coli (H)
Organism, effect (microorganisms [2]; S. pneumoniae): S. pneumoniae (H)

PF-561 (ESLEADVQAELDTEAAKYPALPASF; Peptide with targeting and/or antimicrobial activity)
Organism, effect (microorganisms [2]; B. subtilis): B. subtilis (D)
Organism, effect (microorganisms [2]; MRSA): MRSA (M)

PF-565 (RAEAEAQRQAEADAKRKAEEAARL; Peptide with targeting and/or antimicrobial activity)
Organism, effect (microorganisms [2]; B. subtilis): B. subtilis (D)
Organism, effect (microorganisms [2]; MRSA): MRSA (C)

PF-571 (SDLLYYPNENREDSPAGVVKEVKE; Peptide with targeting and/or antimicrobial activity)
Organism, effect (microorganisms [2]; B. subtilis): B. subtilis (D)

PF-574 (LVKSGKLESPYEHSEHLTLSQEKGLE; Peptide with targeting and/or antimicrobial activity)
Organism, effect (microorganisms [2]; B. subtilis): B. subtilis (D)

PF-582 (NLKTIEKECPFCNNKMDIKLKD; Peptide with targeting and/or antimicrobial activity)
Organism, effect (microorganisms [2]; E. faecalis): E. faecalis (A)

PF-618 (KLNTLNKKDNPSLNDQDKNAVLNLLALAK; Peptide with targeting and/or antimicrobial activity)
Organism, effect (microorganisms [2]; E. faecalis): E. faecalis (H)
Organism, effect (microorganisms [2]; S. pneumoniae): S. pneumoniae (I)

PF-624 (VFLLDSYCFVKINL; Peptide with targeting and/or antimicrobial activity)
Organism, effect (microorganisms [2]; E. coli): E. coli (C)
Organism, effect (microorganisms [2]; M. luteus): M. luteus (C)
Organism, effect (microorganisms [2]; MRSA): MRSA (C)
Organism, effect (microorganisms [2]; P. mirabilis): P. mirabilis (C)
Organism, effect (microorganisms [2]; S. epidermidis): S. epidermidis (D)
Organism, effect (microorganisms [2]; S. mutans): S. mutans (D)
Organism, effect (microorganisms [2]; S. pneumoniae): S. pneumoniae (D)

PF-670 (chain 1 TVIVAPMHSGV; chain 2 TVIVAPMHSGV; Peptide with targeting and/or antimicrobial activity)
Organism, effect (microorganisms [2]; B. subtilis): B. subtilis (H)
Organism, effect (microorganisms [2]; S. pneumoniae): S. pneumoniae (H)

PF-C089 (MPKRHYYKLEAKALQFGLPFAYSPIQLLK; Peptide with targeting and/or antimicrobial activity)
Organism, effect (microorganisms [2]; P. gingivalis): P. gingivalis (R)

PF-C214 (GGHKQLVIEPLVSQ; Peptide with targeting and/or antimicrobial activity)
Organism, effect (microorganisms [2]; F. nucleatum): F. nucleatum (T)

PF-C293 (IIIILPKIYLVCKTV; Peptide with targeting and/or antimicrobial activity)
Organism, effect (microorganisms [2]; F. nucleatum): F. nucleatum (T)
Organism, effect (microorganisms [2]; P. gingivalis): P. gingivalis (R)
Organism, effect (microorganisms [2]; S. mutans): S. mutans (F)
